Laboratory results published in patent US10357484B2, “Heterocyclic compound” (Takeda Pharmaceutical Company Limited, priority 2015, dated 2019).

What was measured:
Type in all cases: biochemical
HDAC6 enzyme = molecular target: T1, HDAC6 enzyme (Homo sapiens, UniProt Q9UBN7); assay: HDAC6 enzyme inhibitory assay (HDAC-Glo I/II Assay kit); conditions: 1 μM test compound; wells without enzyme = 100% inhibition; read-out: HDAC6 inhibitory rate (%) (1 μM)
T1 construct: transducing full length HDAC1 and HDAC6 genes into Sf-9 insect cells; GST; purchased SignalChem; host or cells: Sf-9 insect cells
T1 sequence (Q9UBN7 1-1215): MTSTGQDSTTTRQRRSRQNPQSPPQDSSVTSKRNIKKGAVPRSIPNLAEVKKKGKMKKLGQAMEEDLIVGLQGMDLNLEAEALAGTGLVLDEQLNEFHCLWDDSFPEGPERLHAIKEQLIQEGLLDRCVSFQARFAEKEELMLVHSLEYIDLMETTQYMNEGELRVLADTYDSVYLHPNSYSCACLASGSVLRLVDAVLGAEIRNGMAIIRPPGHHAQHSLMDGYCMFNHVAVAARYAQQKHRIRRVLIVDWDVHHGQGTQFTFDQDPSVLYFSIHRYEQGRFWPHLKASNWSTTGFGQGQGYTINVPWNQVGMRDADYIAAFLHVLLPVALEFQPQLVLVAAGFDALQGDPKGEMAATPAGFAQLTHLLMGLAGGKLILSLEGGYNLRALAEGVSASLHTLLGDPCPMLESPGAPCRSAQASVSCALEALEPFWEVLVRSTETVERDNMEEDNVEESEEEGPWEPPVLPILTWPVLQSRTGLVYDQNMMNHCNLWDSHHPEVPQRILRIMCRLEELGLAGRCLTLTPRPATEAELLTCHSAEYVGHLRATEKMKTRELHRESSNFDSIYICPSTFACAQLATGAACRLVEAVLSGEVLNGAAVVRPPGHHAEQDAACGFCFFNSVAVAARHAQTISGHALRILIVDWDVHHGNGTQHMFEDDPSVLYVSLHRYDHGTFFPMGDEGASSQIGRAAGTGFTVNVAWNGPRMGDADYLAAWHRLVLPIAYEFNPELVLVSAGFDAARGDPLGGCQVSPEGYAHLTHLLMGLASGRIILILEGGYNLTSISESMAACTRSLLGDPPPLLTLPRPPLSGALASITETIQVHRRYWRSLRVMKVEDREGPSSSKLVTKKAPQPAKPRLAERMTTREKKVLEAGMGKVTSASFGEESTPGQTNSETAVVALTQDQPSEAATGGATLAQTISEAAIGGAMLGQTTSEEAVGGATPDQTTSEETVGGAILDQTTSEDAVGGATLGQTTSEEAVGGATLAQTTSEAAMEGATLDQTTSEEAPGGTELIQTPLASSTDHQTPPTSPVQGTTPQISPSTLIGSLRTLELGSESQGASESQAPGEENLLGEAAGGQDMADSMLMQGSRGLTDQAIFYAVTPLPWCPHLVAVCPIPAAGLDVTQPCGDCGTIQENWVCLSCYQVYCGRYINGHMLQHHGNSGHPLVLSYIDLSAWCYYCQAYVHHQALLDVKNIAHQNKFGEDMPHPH
Procedure: (§1) HDAC1/6 Enzyme Inhibitory Assay
(§2) HDAC1 enzyme and HDAC6 enzyme each prepared by transducing full length HDAC1 and HDAC6 genes into Sf-9 insect cells and purifying by GST affinity column were purchased from SignalChem. Using these enzymes, HDAC1 and/or HDAC6 enzyme inhibitory activities of the compound of the present invention were evaluated. Enzymes were used after preserved at −70° C. HDAC1 or HDAC6 enzyme inhibitory activity of the compound of the present invention was measured using HDAC-Glo™ I/II Assay kit (Promega) according to the following experimental method. The test compound diluted with assay buffer (24 mM Tris-HCl (pH 7.5), 1 mM MgCl2, 0.35 mM KCl, 135 mM NaCl, 0.6 mM Glutathione, 0.01% Tween-20) was added to a 384-well plate by each 2 μL. Then, HDAC1 or HDAC6 enzyme solution diluted with assay buffer was added thereto by each 4 μL, and the plate was incubated at room temperature for 60 min. After incubated, HDAC substrate-Developer solution prepared according to Promega protocol attached to the assay kit was added to the 384-well plate by each 2 μL, and the enzyme reaction was started. After reacting at room temperature for 20 min, luminescence level was measured using plate reader Envision (PerkinElmer). The inhibitory activity of each compound was calculated as a relative activity value when luminescence level in wells without enzyme is considered as 100% inhibition.

HDAC1 enzyme = molecular target: T2, HDAC1 enzyme (Homo sapiens, UniProt Q13547); assay: HDAC1 enzyme inhibitory assay (HDAC-Glo I/II Assay kit); conditions: 1 μM test compound; wells without enzyme = 100% inhibition; read-out: HDAC1 inhibitory rate (%) (1 μM)
T2 construct: transducing full length HDAC1 and HDAC6 genes into Sf-9 insect cells; GST; purchased SignalChem; host or cells: Sf-9 insect cells
T2 sequence (Q13547 whole entry): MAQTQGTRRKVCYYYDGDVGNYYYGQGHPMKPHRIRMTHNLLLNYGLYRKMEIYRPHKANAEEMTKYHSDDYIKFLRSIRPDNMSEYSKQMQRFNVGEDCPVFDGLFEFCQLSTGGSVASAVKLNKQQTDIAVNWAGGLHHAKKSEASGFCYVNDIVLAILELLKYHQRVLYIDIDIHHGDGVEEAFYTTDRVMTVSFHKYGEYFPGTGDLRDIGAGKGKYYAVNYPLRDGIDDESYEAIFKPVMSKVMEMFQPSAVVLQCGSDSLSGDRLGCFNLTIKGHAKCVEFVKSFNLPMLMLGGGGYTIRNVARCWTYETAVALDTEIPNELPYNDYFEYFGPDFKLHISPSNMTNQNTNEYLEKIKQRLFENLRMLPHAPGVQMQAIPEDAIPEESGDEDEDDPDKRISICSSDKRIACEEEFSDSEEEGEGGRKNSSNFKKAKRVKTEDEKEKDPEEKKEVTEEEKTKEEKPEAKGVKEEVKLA
Procedure: as §1, §2

HDAC9 enzyme = molecular target: T3, HDAC9 enzyme (Homo sapiens, UniProt Q9UKV0); assay: HDAC9 enzyme inhibitory assay (HDAC-Glo class IIa); conditions: 1 μM test compound; wells without enzyme = 100% inhibition; read-out: HDAC9 inhibitory rate (%) (1 μM)
T3 construct: transducing full length HDAC9 gene into Sf-9 insect cells; made in house; host or cells: Sf-9 insect cells
T3 sequence (Q9UKV0 whole entry, species assumed): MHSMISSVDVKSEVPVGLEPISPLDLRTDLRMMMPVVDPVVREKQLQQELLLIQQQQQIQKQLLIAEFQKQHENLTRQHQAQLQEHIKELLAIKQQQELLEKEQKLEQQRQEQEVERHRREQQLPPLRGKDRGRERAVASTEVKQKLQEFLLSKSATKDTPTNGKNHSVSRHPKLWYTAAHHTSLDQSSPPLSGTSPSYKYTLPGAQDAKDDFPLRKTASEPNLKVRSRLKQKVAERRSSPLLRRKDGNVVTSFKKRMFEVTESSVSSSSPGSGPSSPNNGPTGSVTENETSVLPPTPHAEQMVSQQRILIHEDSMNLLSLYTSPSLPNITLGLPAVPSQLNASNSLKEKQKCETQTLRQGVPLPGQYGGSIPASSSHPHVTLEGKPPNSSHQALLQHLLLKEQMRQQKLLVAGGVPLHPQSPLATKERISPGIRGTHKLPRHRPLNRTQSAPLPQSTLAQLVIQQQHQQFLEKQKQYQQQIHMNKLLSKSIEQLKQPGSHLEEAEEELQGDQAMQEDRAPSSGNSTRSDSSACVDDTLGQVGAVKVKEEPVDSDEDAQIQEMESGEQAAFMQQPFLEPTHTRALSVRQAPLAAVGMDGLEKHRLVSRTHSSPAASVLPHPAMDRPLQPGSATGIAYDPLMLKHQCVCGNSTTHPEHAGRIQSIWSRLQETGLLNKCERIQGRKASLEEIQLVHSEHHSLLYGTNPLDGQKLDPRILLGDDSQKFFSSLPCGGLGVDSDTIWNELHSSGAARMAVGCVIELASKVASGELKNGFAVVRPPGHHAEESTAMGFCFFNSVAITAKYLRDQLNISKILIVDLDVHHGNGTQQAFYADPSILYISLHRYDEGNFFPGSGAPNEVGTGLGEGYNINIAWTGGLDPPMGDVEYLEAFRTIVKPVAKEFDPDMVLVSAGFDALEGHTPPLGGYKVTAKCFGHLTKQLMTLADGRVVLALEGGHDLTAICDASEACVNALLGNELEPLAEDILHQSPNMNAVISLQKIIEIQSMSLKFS
Procedure: HDAC9 Enzyme Inhibitory Assay
Enzyme was prepared by transducing full length HDAC9 gene into Sf-9 insect cells and purifying by Ni-NTA affinity column, and HDAC9 enzyme inhibitory activity was evaluated. Enzymes were used after preserved at −70° C. HDAC9 enzyme inhibitory activity of the test compound was measured using HDAC-Glo class IIa (Promega) according to the following experimental method. The test compound diluted with assay buffer (24 mM Tris-HCl (pH 7.5), 1 mM MgCl2, 0.35 mM KCl, 135 mM NaCl, 0.6 mM Glutathione, 0.01% Tween-20) was added to a 384-well plate by each 2 μL. Then, HDAC9 enzyme solution diluted with assay buffer was added thereto by each 2 μL, and the plate was incubated at room temperature for 60 min. After incubated, HDAC substrate-Developer solution prepared according to Promega protocol was added to the 384-well plate by each 4 μL, and the enzyme reaction was started. After reacting at room temperature for 20 min, luminescence level was measured using plate reader Envision (PerkinElmer). The inhibitory activity of each compound was calculated as a relative activity value when luminescence level in wells without enzyme is considered as 100% inhibition.

SMILES | inhibition at 1 µM (HDAC6 enzyme) [%] | inhibition at 1 µM (HDAC1 enzyme) [%] | inhibition at 1 µM (HDAC9 enzyme) [%]
C[C@@H](c1ccc(F)cc1OC(F)F)N1Cc2ccc(-c3noc(C(F)(F)F)n3)cc2C1=O [Example 21, 2-((1S)-1-(2-(difluoromethoxy)-4-fluorophenyl)ethyl)-6-(5-(trifluoromethyl)-1,2,4-oxadiazol-3 yl)isoindolin-1-one] | 96 | 18 | 73
C[C@@H](c1cccc2ccccc12)N1Cc2ccc(-c3noc(C(F)(F)F)n3)cc2C1=O [Example 22, 2-((1S)-1-(1-naphthyl)ethyl)-6-(5-(trifluoromethyl)-1,2,4-oxadiazol-3-yl)isoindolin-1-one] | 92 | 3 | 82
C[C@H](c1cccc2ccccc12)N1Cc2ccc(-c3noc(C(F)(F)F)n3)cc2C1=O [Example 23, 2-((1R)-1-(1-naphthyl)ethyl)-6-(5-(trifluoromethyl)-1,2,4-oxadiazol-3-yl)isoindolin-1-one] | 99 | 4 | 28
O=C1c2cc(-c3noc(C(F)(F)F)n3)ccc2CN1Cc1ccccc1F [Example 24, 2-(2-fluorobenzyl)-6-(5-(trifluoromethyl)-1,2,4-oxadiazol-3-yl)isoindolin-1-one] | 97 | 17 | 75
O=C1c2cc(-c3noc(C(F)(F)F)n3)ccc2CN1Cc1ccccc1Cl [Example 25, 2-(2-chlorobenzyl)-6-(5-(trifluoromethyl)-1,2,4-oxadiazol-3-yl)isoindolin-1-one] | 94 | 11 | 64
O=C1c2cc(-c3noc(C(F)(F)F)n3)ccc2CN1Cc1ccccc1OC(F)(F)F [Example 26, 2-(2-(trifluoromethoxy)benzyl)-6-(5-(trifluoromethyl)-1,2,4-oxadiazol-3-yl)isoindolin-1-one] | 95 | 8 | 58
O=C1c2cc(-c3noc(C(F)(F)F)n3)ccc2CN1Cc1c(F)cccc1F [Example 27, 2-(2,6-difluorobenzyl)-6-(5-(trifluoromethyl)-1,2,4-oxadiazol-3-yl)isoindolin-1-one] | 96 | 21 | 76
CS(=O)(=O)c1ccc(CN2Cc3ccc(-c4noc(C(F)(F)F)n4)cc3C2=O)cc1 [Example 30, 2-(4-(methylsulfonyl)benzyl)-6-(5-(trifluoromethyl)-1,2,4-oxadiazol-3-yl)isoindolin-1-one] | 94 | 30 | 83
COc1cc(CN2Cc3ccc(-c4noc(C(F)(F)F)n4)cc3C2=O)ccc1OCC1CCCO1 (stereo not drawn) [Example 31, 2-(3-methoxy-4-(tetrahydrofuran-2-ylmethoxy)benzyl)-6-(5-(trifluoromethyl)-1,2,4-oxadiazol-3-yl)isoindolin-1-one] | 94 | 40 | 92
COc1ncccc1CN1Cc2ccc(-c3noc(C(F)(F)F)n3)cc2C1=O [Example 33, 2-((2-methoxypyridin-3-yl)methyl)-6-(5-(trifluoromethyl)-1,2,4-oxadiazol-3-yl)isoindolin-1-one] | 98 | 19 | 77
O=C1c2cc(-c3noc(C(F)(F)F)n3)ccc2CN1Cc1nccs1 [Example 36, 2-(1,3-thiazol-2-ylmethyl)-6-(5-(trifluoromethyl)-1,2,4-oxadiazol-3-yl)isoindolin-1-one] | 98 | 15 | 81
Cc1csc(CN2Cc3ccc(-c4noc(C(F)(F)F)n4)cc3C2=O)n1 [Example 37, 2-((4-methyl-1,3-thiazol-2-yl)methyl)-6-(5-(trifluoromethyl)-1,2,4-oxadiazol-3-yl)isoindolin-1-one] | 96 | 20 | 84

Second part, the molecule after the results:

inhibition at 1 µM (HDAC6 enzyme) [%] | inhibition at 1 µM (HDAC1 enzyme) [%] | inhibition at 1 µM (HDAC9 enzyme) [%] | SMILES
95 | 16 | 66 | COc1cc(F)ccc1[C@H](C)N1Cc2ccc(-c3noc(C(F)(F)F)n3)cc2C1=O [Example 20, 2-((S)-1-(4-fluoro-2-methoxyphenyl)ethyl)-6-(5-(trifluoromethyl)-1,2,4-oxadiazol-yl)isoindolin-1-one]
95 | 26 | 82 | N#Cc1cccc(CN2Cc3ccc(-c4noc(C(F)(F)F)n4)cc3C2=O)c1 [Example 28, 3-((1-oxo-6-(5-(trifluoromethyl)-1,2,4-oxadiazol-3-yl)-1,3-dihydro-2H-isoindol-2-yl)methyl)benzonitrile]
94 | 23 | 74 | N#Cc1ccc(CN2Cc3ccc(-c4noc(C(F)(F)F)n4)cc3C2=O)cc1 [Example 29, 4-((1-oxo-6-(5-(trifluoromethyl)-1,2,4-oxadiazol-3-yl)-1,3-dihydro-2H-isoindol-2-yl)methyl)benzonitrile]
99 | 13 | 77 | O=C1c2cc(-c3noc(C(F)(F)F)n3)ccc2CN1Cc1ccccn1 [Example 32]
97 | 16 | 79 | CC(c1ccccn1)N1Cc2ccc(-c3noc(C(F)(F)F)n3)cc2C1=O (stereo not drawn) [Example 34]
97 | 6 | 61 | CN(c1ncccc1CN1Cc2ccc(-c3noc(C(F)(F)F)n3)cc2C1=O)S(C)(=O)=O [Example 35, N-methyl-N-(3-((1-oxo-6-(5-(trifluoromethyl)-1,2,4-oxadiazol-3-yl)-1,3-dihydro-2H-isoindol-2-yl)methyl)pyridin-2-yl)methanesulfonamide]
97 | 23 | 85 | Cc1cc(CN2Cc3ccc(-c4noc(C(F)(F)F)n4)cc3C2=O)nn1C [Example 38, 2-((1,5-dimethyl-1H-pyrazol-3-yl)methyl)-6-(5-(trifluoromethyl)-1,2,4-oxadiazol-3-yl)isoindolin-1-one]
